# From patent publication US20180015051A1, “MODULATORS OF ALPHA-DICARBONYL DETOXIFICATION AND THEIR USE FOR THE TREATMENT OF DIABETIC PATHOLOGIES” (Buck Institute for Research on Aging, priority 2016, published 2018)
# Columns and labels:
# [1] = mice and humans; Gomes and Negrato (2014); cited from earlier work
# [2] = system: native HEK293T cells; assay: Calcium imaging of native HEK293T cells (GFP only); type: cell-based
# Method: (§1) Appropriate HEK293T-derived cells were seeded on collagen-coated glass bottom culture dishes (MatTek Corporation). Cells were loaded with 10 pM of Rhod-3 AM (Life Technology) for 30 min at 37° C. After 30 min they were washed twice with standard Tyrode's solution (135 mM NaCl, 4 mM KCl, 10 mM glucose, 10 mM HEPES, 2 mM CaCl2, and 1 mM MgCl2 at pH=7.4) at room temperature. Calcium imaging was performed on an Olympus BX51WI Axiovert microscope under a 60× objective. Fluorescent images were documented upon sequential excitation with 555 nm followed by 484 nm with a Roper CoolSnap CCD camera. After establishing a baseline 555/484 ratio, methylglyoxal or other agonists were diluted with Tyrode's solution (100 pM or 1 mM final concentration) and were perfused into cells. Images were processed with the MetaFlour (Olympus) software.
# [3] = system: C. elegans; assay: Neuronal damage assay, pan-neuronal GFP reporter (unc-33p::gfp); type: in vivo, Caenorhabditis elegans
# Method: Animals were paralyzed using freshly prepared 5 mM levamisole in M9 buffer and mounted on 2% agar pads under glass coverslips. […] Images were acquired under 40× objective. Neuronal deterioration was examined and characterized by loss of fluorescent intensity of nerve ring, neuronal waviness, and thinning and fragmentation of axons and neuronal commissures. Quantification and imaging of animals harboring damage was performed using the Image J™ software (//imagei.nih.gov/ii/).
# [4] = system: C. elegans; assay: Swim-bend assay (body bends in liquid media); type: in vivo, Caenorhabditis elegans; details: N2 animals; 7 mM MGO vs water
# [5] = target: T1, TRPA1 (RAT) (Rattus norvegicus, UniProt Q6RI86); assay: Calcium imaging of HEK293T cells (Rhod-3 AM), rat TRPA1; type: cell-based; details: HEK293T transfected with rat TRPA1 and GFP; 100 pM or 1 mM MGO
# T1 construct: expressed in transfected cells; host or cells: HEK293T
# Method: as §1
# [6] = system: GLOD-4/GLO1; assay: Glod-4p::gfp expression assay; type: in vivo, Caenorhabditis elegans; details: EV, skn-1, or trpa-1 RNAi; MGO (7 mM) vs water
# Method: Transgenic adult animals carrying glod-4p::gfp were assayed. Fluorescent intensity was calculated by background subtraction and quantified for the same region of interest across individual animals. All quantification was done using Image J™ software (//imagei.nih.gov/ii/).
# [7] = system: DAF-16/FOXO; assay: DAF-16::GFP nuclear localization; type: in vivo, Caenorhabditis elegans; details: 7 mM MGO vs water; heat shock positive control
# Method: FIG. 11, panels A-E, SKN-1/Nrf2 activation due to exogenous MGO treatment and specificity of downstream response to a-DC stress. Related to FIG. 3. (A) Quantification (left) and fluorescence microscopy images (right) of GFP foci in gst-4p::gfp animals reared on empty vector (EV, L4440) or skn-1 RNAi supplemented with water (control) or 7 mM MGO. Foci are marked by white arrows. n=91. Scale bar 0.15 mm. […] Animals were categorized as follows: ‘high’ for strong GFP signal throughout the intestine, ‘medium’ for GFP signal in the anterior or posterior section of the intestine and ‘low’ for weak or no signal. n=100. (C) qPCR analysis of SKN-1 target genes, gst-4 and gcs-1 in N2 animals reared on EV or skn-1 RNAi supplemented with water (control, −) or 7 mM MGO (+). The data is normalized to the corresponding expression levels in N2 (EV, water), represented by the dotted line. (D) Fluorescence microscopy images depicting nuclear localization of DAF-16::GFP and SKN-1::GFP supplemented with water (control) or 7 mM MGO. Heat shock was used as a positive control to drive DAF-16 nuclear localization. Red arrows point towards nuclear localized transcription factors (SKN-1 and DAF-16). Scale bar 20 pm. (E) Fluorescence microscopy images to observe GFP foci in glod-4;gst-4p::gfp animals reared on empty vector (EV, L4440), sgk-1, sek-1, or pmk-1 RNAi. Scale bar 20 pm.
# [8] = target: T2, TRPA1 (worm) (Caenorhabditis elegans, UniProt Q18297); assay: Calcium imaging of HEK293T cells (Rhod-3 AM), worm TRPA1; type: cell-based, C. elegans; details: HEK293T transfected with worm TRPA1 and GFP; 100 pM or 1 mM MGO
# T2 construct: expressed in transfected cells; host or cells: HEK293T
# T2 sequence (Q18297 1-1211): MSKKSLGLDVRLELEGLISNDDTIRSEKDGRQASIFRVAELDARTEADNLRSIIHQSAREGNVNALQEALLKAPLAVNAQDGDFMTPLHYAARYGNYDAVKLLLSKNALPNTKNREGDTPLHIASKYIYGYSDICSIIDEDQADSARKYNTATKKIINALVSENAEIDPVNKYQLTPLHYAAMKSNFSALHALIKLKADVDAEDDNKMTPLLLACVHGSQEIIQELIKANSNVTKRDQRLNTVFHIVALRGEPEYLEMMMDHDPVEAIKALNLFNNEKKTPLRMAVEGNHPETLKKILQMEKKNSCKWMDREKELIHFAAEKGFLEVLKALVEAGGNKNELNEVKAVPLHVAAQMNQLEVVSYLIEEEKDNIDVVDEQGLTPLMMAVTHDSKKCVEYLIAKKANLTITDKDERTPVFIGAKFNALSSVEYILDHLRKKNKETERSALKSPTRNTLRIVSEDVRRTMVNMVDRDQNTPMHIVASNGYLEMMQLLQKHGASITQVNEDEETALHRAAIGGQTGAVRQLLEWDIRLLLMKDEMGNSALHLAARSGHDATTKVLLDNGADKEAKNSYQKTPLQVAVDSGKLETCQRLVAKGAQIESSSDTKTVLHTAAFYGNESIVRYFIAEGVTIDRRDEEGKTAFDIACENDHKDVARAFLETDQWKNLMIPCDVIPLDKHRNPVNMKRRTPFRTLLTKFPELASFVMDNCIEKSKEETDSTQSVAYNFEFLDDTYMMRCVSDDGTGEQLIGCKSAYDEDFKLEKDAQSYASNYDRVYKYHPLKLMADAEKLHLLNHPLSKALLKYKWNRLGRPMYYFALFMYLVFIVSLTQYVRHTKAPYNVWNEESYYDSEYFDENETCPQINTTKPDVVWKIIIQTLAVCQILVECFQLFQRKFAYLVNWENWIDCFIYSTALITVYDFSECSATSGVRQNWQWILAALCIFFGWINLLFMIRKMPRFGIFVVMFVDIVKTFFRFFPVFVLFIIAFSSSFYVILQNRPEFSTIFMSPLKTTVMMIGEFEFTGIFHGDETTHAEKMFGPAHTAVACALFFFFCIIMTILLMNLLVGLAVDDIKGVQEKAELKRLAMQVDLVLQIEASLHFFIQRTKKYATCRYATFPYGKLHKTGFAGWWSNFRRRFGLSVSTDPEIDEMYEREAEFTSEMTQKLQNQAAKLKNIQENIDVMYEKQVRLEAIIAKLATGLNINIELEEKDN
# Method: as §1
# T1 sequence (Q6RI86 whole entry): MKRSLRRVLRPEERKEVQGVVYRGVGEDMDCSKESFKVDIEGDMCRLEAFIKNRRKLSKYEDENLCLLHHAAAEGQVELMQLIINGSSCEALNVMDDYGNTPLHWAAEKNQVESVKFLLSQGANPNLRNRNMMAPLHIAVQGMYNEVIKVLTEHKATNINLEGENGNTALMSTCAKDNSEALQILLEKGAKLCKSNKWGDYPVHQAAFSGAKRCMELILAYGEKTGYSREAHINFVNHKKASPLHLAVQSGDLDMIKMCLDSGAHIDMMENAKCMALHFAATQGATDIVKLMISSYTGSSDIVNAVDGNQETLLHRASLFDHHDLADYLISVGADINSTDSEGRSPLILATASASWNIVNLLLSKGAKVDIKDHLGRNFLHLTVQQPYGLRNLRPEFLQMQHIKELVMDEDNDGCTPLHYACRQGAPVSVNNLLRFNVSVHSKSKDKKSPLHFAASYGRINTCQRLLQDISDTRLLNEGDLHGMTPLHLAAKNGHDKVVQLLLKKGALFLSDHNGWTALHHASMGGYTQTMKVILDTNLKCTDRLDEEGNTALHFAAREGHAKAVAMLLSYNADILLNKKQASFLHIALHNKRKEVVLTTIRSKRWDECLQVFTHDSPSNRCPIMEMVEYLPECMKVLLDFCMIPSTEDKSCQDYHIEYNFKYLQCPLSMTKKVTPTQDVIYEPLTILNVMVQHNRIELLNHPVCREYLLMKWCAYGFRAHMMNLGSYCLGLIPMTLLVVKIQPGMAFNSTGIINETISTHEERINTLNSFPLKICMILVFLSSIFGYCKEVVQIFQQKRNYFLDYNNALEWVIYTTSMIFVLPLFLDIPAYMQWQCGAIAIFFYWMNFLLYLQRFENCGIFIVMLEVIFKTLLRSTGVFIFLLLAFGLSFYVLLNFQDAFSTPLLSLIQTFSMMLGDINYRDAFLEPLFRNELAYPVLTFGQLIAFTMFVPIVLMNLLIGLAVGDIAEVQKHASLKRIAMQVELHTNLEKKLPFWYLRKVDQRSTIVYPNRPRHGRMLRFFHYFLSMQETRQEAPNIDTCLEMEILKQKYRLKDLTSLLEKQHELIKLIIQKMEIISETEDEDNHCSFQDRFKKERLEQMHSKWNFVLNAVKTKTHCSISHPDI
structure (smiles),measurement,setting,value
"O=C(O)CCCCC1CCSS1 (stereo not drawn) [LA, a-lipoic acid]",Effect on diabetic complications,[1],documented to ameliorate diabetic complications
"CC(=O)C=O [MGO, methylglyoxal]",Ca2+ flux in native HEK293T cells (Rhod-3 AM),[2],neither compounds resulted in Ca^+2 flux
same,Neuronal damage,"[3]; unc-33p::gfp, day 4 of adulthood, 7 mM MGO vs water",neuronal damage
same,Motility (number of body bends in liquid media),[4],lower motility
same,Ca2+ flux (Rhod-3 AM fluorescence ratio 555/484 nm),[5],induce a similar Ca^2+ flux
same,glod-4p::gfp reporter expression (GFP intensity),[6],trpa-1- and skn-1 -dependent increase in expression
same,DAF-16/FOXO nuclear localization,[7],failed to trigger
same,Ca2+ flux (Rhod-3 AM fluorescence ratio 555/484 nm),[8],induce a similar Ca^2+ flux
"C[C@]1(C(=O)O)CCC[C@]2(C)c3cc(O)ccc3CC[C@@H]12 [PA, podocarpic acid]",Neuronal damage,"[3]; unc-33p::gfp on glod-4 RNAi, day 10 of adulthood, PA (20 pM) vs EtOH control",prevent the prominent neuronal damages
